Data published in PubChem BioAssay AID234 (DTP/NCI, 2004).
Results filed as inconclusive are left out.

System: C3AKF1 mice, hamster liver cystadenocarcinoma s.c., tumor weight T/C
Experiment: NCI In Vivo Anticancer Drug Screen. Data for tumor model Cystadenocarcinoma, Liver (No. 1) (Hamster) (subcutaneous) in C3AKF1 (CHKRF1) mice
Conditions: endpoint: mean tumor weight, schedule: Q01DX010 (ip), higher = larger tumour
Protocol: The antitumor activity of compounds was measured in mice bearing transplantable tumors. Survival or tumor size were measured and the results are expressed as the measurement made in the treated group (T) divided by the measurement made in the vehicle treated control group (C). The tumor model used in this assay is Cystadenocarcinoma, Liver (No. 1) (Hamster) (subcutaneous) in C3AKF1 (CHKRF1) mice

For `CC(C)(c1ccccc1)c1ccc(O)cc1`, the T/C (dose: 37.5 mg/kg/injection, vehicle: carboxymethylcellulose (CMC)) was 79 % of control.
`CCCCCCCCCCCCn1c(C)nc2ccccc21` was tested, and the T/C (dose: 2.0 mg/kg/injection, vehicle: carboxymethylcellulose (CMC)) was 79 % of control and the T/C (dose: 8.0 mg/kg/injection, vehicle: carboxymethylcellulose (CMC)) was 62 % of control.
`O=c1c[n+](-c2ccccc2)[nH]o1` was tested, and the T/C (dose: 22.5 mg/kg/injection, vehicle: carboxymethylcellulose (CMC)) was 66 % of control and the T/C (dose: 45.0 mg/kg/injection, vehicle: carboxymethylcellulose (CMC)) was 41 % of control.
`O=C(O)c1ccc(-c2ccccc2)cc1` was tested, and the T/C (dose: 50.0 mg/kg/injection, vehicle: carboxymethylcellulose (CMC)) was 95 % of control and the T/C (dose: 100.0 mg/kg/injection, vehicle: carboxymethylcellulose (CMC)) was 49 % of control.
For `CCN(CC)CCNc1ccc([N+](=O)[O-])c2sc3ccccc3c(=O)c12`, the T/C (dose: 20.0 mg/kg/injection, vehicle: saline) was 98 % of control and the T/C (dose: 40.0 mg/kg/injection, vehicle: saline) was 70 % of control.
